For assay [1], the system named is SARS-CoV-2. The format is cell-based.
In assay [2] the test system is SARS-CoV-2. The format is cell-based. Particulars: read-out: EC50 by qRT-PCR. On the technique in general: Real-time PCR tracks product formation cycle by cycle.
Assay [3] concerns SARS-CoV-2. It is filed as cell-based. Particulars: Vero E6 cells, different concentrations, 48 h.
The next assay concerns the target SARS-CoV-2 spike protein (Severe acute respiratory syndrome coronavirus 2, UniProt P0DTC2). Particulars: SPR, spike protein 3.90625-250 nM, immobilized transferrin receptor.

“And” between values parts separate entries of the source, which are not always exact repeats. Equal entries are not always repeated. Where two headings read alike, the source gives them in different places.

A word on the EC50: it is the concentration that produces a half-maximal response.

Turning to “transferrin receptor: transferrin receptor protein purchased from Sino Biological, catalog number 11020-H07H”, the EC50 in the assay on SARS-CoV-2 [1] (read-out: EC50 by CPE analysis) is 80 nM; with SARS-CoV-2 [2], 93 nM and 50 nM. In addition, the “inhibition of SARS-CoV-2 infection” value in the assay with SARS-CoV-2 [3] is “could inhibit SARS-CoV-2 infection”. Further, the “binding of SARS-CoV-2 spike protein to transferrin receptor” value with SARS-CoV-2 spike protein is given as “strong binding capacity”.
“transferrin: main iron-containing plasma single-chain glycoprotein, purchased from Sigma, catalog number T4382”: the EC50 in the assay on SARS-CoV-2 [1] (read-out: EC50 by CPE analysis) is 125 nM; with SARS-CoV-2 [1] (read-out: EC50 calculated by CPE), 80 nM and 50 nM; with SARS-CoV-2 [2], 160 nM. The “inhibition of SARS-CoV-2 infection” value with SARS-CoV-2 [3] is “could inhibit SARS-CoV-2 infection”.

Values taken from patent US20230060040A1, “USE OF TRANSFERRIN, TRANSFERRIN RECEPTOR AND ANTIBODY THEREOF IN PREPARATION OF ANTI-SARS-CoV-2 DRUG” (KUNMING INSTITUTE OF ZOOLOGY, CHINESE ACADEMY OF SCIENCES, priority 2020, published 2023).
